Columns and labels:
Assay type in all cases: cell-based
[1] = system: spheroids of SKOV3 ovarian cancer cells; experiment: Spheroid volume growth after drug and irradiation; conditions: 0.7 μM 1 h before irradiation at 0 Gy or 4 Gy, followed 19 days
Protocol: FIG. 8 includes a schematic overview of experiment. Cells were plated in an ultra-low affinity 96 well plate with a round bottom and allowed to form spheroids for 5 days. […] The medium containing drug was replaced by a drug-free medium after 4 days, then freshly changed twice a week for the rest of the experiment. Diameter of each spheroid was measured two or three times a week for 19 days with Micrometrics SE Premium software. Spheroid volume growth over time. Volume were normalized to day 0. Error bars represent mean±SEM for at least 5 replicates.

[2] = system: ovarian cancer cells cultivated in a 2D cell arrangement; experiment: Clonogenic assay for radiosensitizing effect, 2D culture; conditions: 0.7 μM 1 h before irradiation at 0, 2, 4 or 6 Gy
Protocol: The radiosensitizing effect was assessed with a clonogenic assay. […] The medium was removed right after irradiation and replaced by a drug-free medium, changed twice a week for the rest of the experiment. Clonogenic assay was stopped when colonies containing at least 50 cells were observed under the microscope. Error bar represent mean±SEM from 3 independent experiments with at least 2 replicates each.

[3] = system: SKOV3 ovarian cancer cells; experiment: MTT antiproliferative assay on SKOV3 cells in monolayer (2D); conditions: for IC50: SKOV3 cells cultured in monolayer, 48 h exposure
SKOV3 spheroids = experiment: MTT antiproliferative assay on SKOV3 spheroids; conditions: for antiproliferative effect: SKOV3 spheroids; for IC50: SKOV3 spheroids (5 days formation), 48 h exposure
Protocol: Twenty thousand cells were seeded in an ultra-low affinity round bottom 96 well plates and 5 days were allowed for spheroids formation. […] Error bars represent mean±SEM from 3 independent experiments of at least 6 replicates each.

NHEJ DNA repair pathway = experiment: Western blot of DNA repair proteins after irradiation; conditions: SKOV3 2D, 0.7 μM 1 h before irradiation at 0 or 2 Gy
Protocol: Western blot showing expression level of ATM, S1981pATM, DNA-PKcs, S2056pDNA-PKcs, XRCC4, RPA70 and RAD51 in SKOV3 cells cultivated in 2D. Cells were exposed to DMSO or WD at a concentration of 0.7 μM 1 h before undergoing an irradiation at 0 or 2 Gy. Proteins within cells were extracted 1 h, 6 h or 24 h after irradiation. A total of 5 μg of proteins was loaded. Bands intensities were quantified using ImageJ, normalized with GAPDH. Numbers represent expression level compared to non-irradiated cells. NI=Non-irradiated samples.

Monolayer SKOV3 cells = experiment: γ-H2AX / 53BP1 foci immunofluorescence after irradiation; conditions: 0.7 μM 1 h before irradiation at 0 or 2 Gy, 6 h, 24 h after irradiation
Protocol: Cells were seeded on coverslip at a density of 5×10^4 per mL and exposed to DMSO or WD at a concentration of 0.7 μM 1 h before being irradiated at 0 or 2 Gy. The medium was removed and replaced by a drug-free medium immediately after irradiation. FIG. 6A. Images of immunofluorescence elicited in SKOV3 cells 1 h, 6 h and 24 h after irradiation taken using an Epifluorescence microscope at a magnification of 63×. […] Scale bar=10 μm. […] Values are normalized with non-irradiated cells, exposed to DMSO or WD respectively. […] Values are normalized with non-irradiated cells, exposed to DMSO or WD respectively. All the data are presented as the mean±SEM of at least 60 nuclei. *Significant differences as determined by Student's t-test (p<0.05).

Row | SMILES | radiosensitization of spheroids (normalized volume) [1] | radiosensitizing effect [2] | cytotoxic effect ([3]; SKOV3 2D, 0.156 to 80 μM, 48 h) | IC50 [3] | antiproliferative effect (SKOV3 spheroids) | IC50 (SKOV3 spheroids) | mechanism of radiosensitization (expression of ATM, pATM, DNA-PKcs, pDNA-PKcs, XRCC4, RPA70, RAD51) (NHEJ DNA repair pathway) | DNA DSBs (γ-H2AX and 53BP1 foci) versus DMSO (Monolayer SKOV3 cells)
1 | CC1=C(C)C(=O)O[C@@H]([C@](C)(O)[C@H]2CC[C@H]3[C@@H]4C[C@H]5O[C@]56[C@@H](O)C=CC(=O)[C@]6(C)[C@H]4CC[C@]23C)C1 [WD, withanolide D] | do not radiosensitize | have a radiosensitizing effect | dose-dependent cytotoxic effect | 4.2 µM | significant antiproliferative effect | 16 µM | inhibiting the NHEJ DNA repair pathway | more DNA DSBs over 24 h than those exposed to DMSO
2 | CC1=C(CO)C(=O)O[C@@H]([C@@H](C)[C@H]2CC[C@H]3[C@@H]4C[C@H]5O[C@]56[C@@H](O)C=CC(=O)[C@]6(C)[C@H]4CC[C@]23C)C1 [WFA, withaferin A] | do not radiosensitize | have a radiosensitizing effect |  | 4.4 µM | significant antiproliferative effect | 23 µM |  | 
